In the kinase profiling compilation of Christmann-Franck et al. (2016):

Key:
Test in all cases: radiometric filter-binding kinase assay
AURKB (human) = AURKB (human) (UniProt Q96GD4)
PIM1 (human) = PIM1 (human) (UniProt P11309)
PAK7 (human) = PAK7 (human) (UniProt Q9P286)
MAPK12 (human) = MAPK12 (human) (UniProt P53778)
PAK4 (human) = PAK4 (human) (UniProt O96013)
MINK1 (human) = MINK1 (human) (UniProt Q8N4C8)
CSK (human) = CSK (human) (UniProt P41240)
MAPKAPK2 (human) = MAPKAPK2 (human) (UniProt P49137)
RIPK2 (human) = RIPK2 (human) (UniProt O43353)
MAP2K2 (human) = MAP2K2 (human) (UniProt P36507)
DYRK2 (human) = DYRK2 (human) (UniProt Q92630)
MAPK8 (human) = MAPK8 (human) (UniProt P45983)
YES1 (human) = YES1 (human) (UniProt P07947)
IGF1R (human) = IGF1R (human) (UniProt P08069)
IKBKE (human) = IKBKE (human) (UniProt Q14164)
MAPK9 (human) = MAPK9 (human) (UniProt P45984)
BTK (human) = BTK (human) (UniProt Q06187)
MKNK2 (human) = MKNK2 (human) (UniProt Q9HBH9)
EPHB3 (human) = EPHB3 (human) (UniProt P54753)
MAPK14 (human) = MAPK14 (human) (UniProt Q16539)
MAPKAPK5 (human) = MAPKAPK5 (human) (UniProt Q8IW41)
BRSK1 (human) = BRSK1 (human) (UniProt Q8TDC3)
HIPK2 (human) = HIPK2 (human) (UniProt Q9H2X6)
MAPK15 (human) = MAPK15 (human) (UniProt Q8TD08)
PRKACA (human) = PRKACA (human) (UniProt P17612)
MAP3K7 TAB1 (human) = MAP3K7 TAB1 (human) (UniProt Q15750+O43318)
CAMKK2 (human) = CAMKK2 (human) (UniProt Q96RR4)
IKBKB (human) = IKBKB (human) (UniProt O14920)
DYRK1A (human) = DYRK1A (human) (UniProt Q13627)
MAP3K11 (human) = MAP3K11 (human) (UniProt Q16584)
MELK (human) = MELK (human) (UniProt Q14680)
EPHB2 (human) = EPHB2 (human) (UniProt P29323)
EPHA4 (human) = EPHA4 (human) (UniProt P54764)
CaMK1 (human) = CaMK1 (human) (UniProt Q14012)
CSNK1D (human) = CSNK1D (human) (UniProt P48730)
CSNK1D (human), sequence (P48730 whole entry, looked up): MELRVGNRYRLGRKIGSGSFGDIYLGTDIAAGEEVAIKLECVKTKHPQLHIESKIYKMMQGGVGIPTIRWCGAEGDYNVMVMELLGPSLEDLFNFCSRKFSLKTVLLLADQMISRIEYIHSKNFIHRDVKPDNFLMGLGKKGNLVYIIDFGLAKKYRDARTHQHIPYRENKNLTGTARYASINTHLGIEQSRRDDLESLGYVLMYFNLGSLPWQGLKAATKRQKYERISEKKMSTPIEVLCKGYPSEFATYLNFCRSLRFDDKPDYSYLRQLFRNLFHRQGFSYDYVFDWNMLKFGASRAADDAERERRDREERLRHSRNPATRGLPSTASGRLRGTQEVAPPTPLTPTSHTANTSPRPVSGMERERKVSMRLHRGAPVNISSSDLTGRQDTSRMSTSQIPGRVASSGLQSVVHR

IKBKE (human), sequence (Q14164 whole entry, looked up): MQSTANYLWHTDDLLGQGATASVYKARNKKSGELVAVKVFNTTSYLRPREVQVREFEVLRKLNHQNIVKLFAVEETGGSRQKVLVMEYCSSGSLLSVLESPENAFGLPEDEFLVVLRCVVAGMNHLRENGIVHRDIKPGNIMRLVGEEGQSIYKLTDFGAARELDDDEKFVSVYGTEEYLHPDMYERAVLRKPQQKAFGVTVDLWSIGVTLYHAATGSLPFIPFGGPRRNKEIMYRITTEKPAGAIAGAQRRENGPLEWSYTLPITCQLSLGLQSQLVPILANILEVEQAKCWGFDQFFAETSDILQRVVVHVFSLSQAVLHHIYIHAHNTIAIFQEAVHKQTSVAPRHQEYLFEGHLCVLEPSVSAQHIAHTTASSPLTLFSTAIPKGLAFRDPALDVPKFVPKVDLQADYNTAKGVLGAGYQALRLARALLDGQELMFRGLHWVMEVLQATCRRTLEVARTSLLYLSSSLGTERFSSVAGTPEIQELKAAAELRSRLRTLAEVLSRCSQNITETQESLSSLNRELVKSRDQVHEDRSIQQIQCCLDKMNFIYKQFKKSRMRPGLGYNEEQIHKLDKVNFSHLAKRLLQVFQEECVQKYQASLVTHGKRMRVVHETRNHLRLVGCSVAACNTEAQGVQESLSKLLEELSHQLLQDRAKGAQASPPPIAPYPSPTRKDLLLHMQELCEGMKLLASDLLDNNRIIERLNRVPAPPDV
BRSK1 (human), sequence (Q8TDC3 whole entry, looked up): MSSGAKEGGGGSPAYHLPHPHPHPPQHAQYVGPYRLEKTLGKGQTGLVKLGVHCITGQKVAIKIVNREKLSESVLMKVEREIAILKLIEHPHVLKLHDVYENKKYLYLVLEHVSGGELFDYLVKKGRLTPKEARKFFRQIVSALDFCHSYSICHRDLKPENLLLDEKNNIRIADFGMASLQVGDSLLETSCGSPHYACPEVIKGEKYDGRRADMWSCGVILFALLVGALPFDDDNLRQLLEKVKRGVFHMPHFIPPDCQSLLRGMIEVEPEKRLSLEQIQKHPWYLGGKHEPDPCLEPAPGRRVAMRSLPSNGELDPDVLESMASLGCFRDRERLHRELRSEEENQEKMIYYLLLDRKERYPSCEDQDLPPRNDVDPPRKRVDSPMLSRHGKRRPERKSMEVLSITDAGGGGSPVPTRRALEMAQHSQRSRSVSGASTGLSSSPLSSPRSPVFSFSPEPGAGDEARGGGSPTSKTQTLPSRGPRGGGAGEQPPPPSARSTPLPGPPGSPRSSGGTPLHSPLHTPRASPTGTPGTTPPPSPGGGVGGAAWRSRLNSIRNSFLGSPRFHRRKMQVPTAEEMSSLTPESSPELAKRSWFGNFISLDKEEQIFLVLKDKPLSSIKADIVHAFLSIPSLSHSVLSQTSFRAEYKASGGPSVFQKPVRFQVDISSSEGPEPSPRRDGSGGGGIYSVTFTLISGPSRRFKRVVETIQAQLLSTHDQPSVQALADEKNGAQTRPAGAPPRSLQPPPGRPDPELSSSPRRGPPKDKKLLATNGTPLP
MAPK12 (human), sequence (P53778 whole entry, looked up): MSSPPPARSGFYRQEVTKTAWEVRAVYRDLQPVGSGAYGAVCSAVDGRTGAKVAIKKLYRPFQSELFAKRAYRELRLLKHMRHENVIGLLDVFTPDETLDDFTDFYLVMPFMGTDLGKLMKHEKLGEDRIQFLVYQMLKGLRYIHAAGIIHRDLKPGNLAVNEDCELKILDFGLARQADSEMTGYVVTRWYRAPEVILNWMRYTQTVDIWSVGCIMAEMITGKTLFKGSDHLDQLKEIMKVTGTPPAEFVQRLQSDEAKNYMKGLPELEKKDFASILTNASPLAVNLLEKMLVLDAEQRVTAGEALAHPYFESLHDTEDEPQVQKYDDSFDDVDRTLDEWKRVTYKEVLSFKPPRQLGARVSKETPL
CAMKK2 (human), sequence (Q96RR4 whole entry, looked up): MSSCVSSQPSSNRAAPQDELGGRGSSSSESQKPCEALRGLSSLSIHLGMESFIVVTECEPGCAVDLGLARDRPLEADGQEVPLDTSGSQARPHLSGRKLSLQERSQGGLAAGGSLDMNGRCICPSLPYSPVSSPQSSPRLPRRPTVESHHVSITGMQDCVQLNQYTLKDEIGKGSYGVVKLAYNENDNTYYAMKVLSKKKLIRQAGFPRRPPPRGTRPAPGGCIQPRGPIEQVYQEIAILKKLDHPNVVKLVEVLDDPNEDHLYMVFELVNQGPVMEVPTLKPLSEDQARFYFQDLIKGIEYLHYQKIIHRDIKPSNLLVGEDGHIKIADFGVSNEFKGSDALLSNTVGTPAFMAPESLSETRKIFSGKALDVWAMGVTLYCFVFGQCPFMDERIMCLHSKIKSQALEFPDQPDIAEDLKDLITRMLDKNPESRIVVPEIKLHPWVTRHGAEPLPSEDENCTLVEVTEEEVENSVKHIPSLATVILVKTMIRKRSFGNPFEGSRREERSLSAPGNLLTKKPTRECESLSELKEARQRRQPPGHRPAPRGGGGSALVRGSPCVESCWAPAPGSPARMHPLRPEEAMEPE
AURKB (human), sequence (Q96GD4 whole entry, looked up): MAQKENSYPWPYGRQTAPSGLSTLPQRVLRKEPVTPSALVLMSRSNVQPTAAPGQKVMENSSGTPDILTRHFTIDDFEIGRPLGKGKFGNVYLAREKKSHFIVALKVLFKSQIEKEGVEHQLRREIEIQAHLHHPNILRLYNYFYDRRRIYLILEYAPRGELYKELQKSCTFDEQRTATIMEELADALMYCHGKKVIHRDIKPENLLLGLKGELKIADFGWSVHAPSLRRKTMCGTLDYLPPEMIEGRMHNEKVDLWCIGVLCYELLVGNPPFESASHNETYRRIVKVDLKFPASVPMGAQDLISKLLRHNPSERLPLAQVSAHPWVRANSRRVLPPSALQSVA
MAPK9 (human), sequence (P45984 whole entry, looked up): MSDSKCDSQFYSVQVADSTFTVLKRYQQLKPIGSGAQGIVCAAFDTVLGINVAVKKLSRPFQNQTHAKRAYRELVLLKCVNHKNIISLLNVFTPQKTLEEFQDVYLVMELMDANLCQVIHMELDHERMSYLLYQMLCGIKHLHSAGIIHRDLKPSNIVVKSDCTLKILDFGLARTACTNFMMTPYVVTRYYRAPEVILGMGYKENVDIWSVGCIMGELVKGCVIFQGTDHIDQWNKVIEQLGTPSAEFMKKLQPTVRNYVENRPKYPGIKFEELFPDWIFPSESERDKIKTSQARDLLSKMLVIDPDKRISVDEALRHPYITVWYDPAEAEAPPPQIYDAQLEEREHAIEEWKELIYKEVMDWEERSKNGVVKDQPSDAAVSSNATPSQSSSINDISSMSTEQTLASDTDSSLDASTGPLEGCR
MAP2K2 (human), sequence (P36507 whole entry, looked up): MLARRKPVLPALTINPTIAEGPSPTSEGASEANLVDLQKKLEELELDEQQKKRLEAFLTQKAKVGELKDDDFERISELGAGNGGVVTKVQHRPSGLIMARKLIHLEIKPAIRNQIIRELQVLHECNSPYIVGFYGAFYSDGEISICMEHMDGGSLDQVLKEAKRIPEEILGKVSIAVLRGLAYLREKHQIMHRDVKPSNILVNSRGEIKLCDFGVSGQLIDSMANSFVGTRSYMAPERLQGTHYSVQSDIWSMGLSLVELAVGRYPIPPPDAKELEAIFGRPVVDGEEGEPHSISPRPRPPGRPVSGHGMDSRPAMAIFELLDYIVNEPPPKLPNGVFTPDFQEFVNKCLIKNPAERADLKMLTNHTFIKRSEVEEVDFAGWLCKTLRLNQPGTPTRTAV
DYRK2 (human), sequence (Q92630 whole entry, looked up): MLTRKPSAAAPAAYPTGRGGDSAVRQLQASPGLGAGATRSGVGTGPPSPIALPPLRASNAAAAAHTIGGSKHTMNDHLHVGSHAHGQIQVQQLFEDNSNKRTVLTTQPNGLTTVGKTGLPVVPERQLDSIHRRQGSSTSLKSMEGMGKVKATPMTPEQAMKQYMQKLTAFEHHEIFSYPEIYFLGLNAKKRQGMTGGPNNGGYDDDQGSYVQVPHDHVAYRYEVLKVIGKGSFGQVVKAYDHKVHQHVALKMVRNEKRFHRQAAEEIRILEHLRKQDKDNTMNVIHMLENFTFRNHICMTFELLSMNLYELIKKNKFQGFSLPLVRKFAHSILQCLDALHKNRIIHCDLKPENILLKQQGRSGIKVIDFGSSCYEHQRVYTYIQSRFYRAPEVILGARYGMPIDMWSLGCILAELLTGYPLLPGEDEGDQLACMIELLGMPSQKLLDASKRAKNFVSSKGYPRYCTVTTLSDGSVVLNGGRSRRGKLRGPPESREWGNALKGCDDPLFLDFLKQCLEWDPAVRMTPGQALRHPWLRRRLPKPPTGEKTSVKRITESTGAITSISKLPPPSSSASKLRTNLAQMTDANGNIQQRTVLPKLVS
MAPK14 (human), sequence (Q16539 whole entry, looked up): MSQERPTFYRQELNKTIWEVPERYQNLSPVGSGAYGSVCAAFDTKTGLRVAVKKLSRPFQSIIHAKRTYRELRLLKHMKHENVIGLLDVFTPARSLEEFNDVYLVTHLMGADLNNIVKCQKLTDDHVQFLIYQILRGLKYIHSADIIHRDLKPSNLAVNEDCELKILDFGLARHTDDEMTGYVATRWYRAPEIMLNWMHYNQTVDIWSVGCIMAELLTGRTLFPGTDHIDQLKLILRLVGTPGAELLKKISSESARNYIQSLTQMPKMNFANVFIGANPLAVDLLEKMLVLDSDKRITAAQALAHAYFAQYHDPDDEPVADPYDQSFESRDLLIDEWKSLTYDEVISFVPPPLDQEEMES

N#Cc1c(C2CCNCC2)cc(-c2c(O)cccc2OCC2CC2)nc1N
residual activity (AURKB (human); compound 1.0 µM): 67%
residual activity (AURKB (human); compound 10.0 µM): 42%
residual activity (PIM1 (human); compound 1.0 µM): 63%
residual activity (PIM1 (human); compound 10.0 µM): 18%
residual activity (PAK7 (human); compound 1.0 µM): 84%
residual activity (PAK7 (human); compound 10.0 µM): 75%
residual activity (MAPK12 (human); compound 1.0 µM): 94%
residual activity (MAPK12 (human); compound 10.0 µM): 72%
residual activity (PAK4 (human); compound 1.0 µM): 112%
residual activity (PAK4 (human); compound 10.0 µM): 69%
residual activity (MINK1 (human); compound 1.0 µM): 66%
residual activity (MINK1 (human); compound 10.0 µM): 52%
residual activity (CSK (human); compound 1.0 µM): 83%
residual activity (CSK (human); compound 10.0 µM): 74%
residual activity (MAPKAPK2 (human); compound 1.0 µM): 115%
residual activity (MAPKAPK2 (human); compound 10.0 µM): 95%
residual activity (RIPK2 (human); compound 1.0 µM): 80%
residual activity (RIPK2 (human); compound 10.0 µM): 57%
residual activity (MAP2K2 (human); compound 1.0 µM): 107%
residual activity (MAP2K2 (human); compound 10.0 µM): 77%
residual activity (DYRK2 (human); compound 1.0 µM): 91%
residual activity (DYRK2 (human); compound 10.0 µM): 91%
residual activity (MAPK8 (human); compound 1.0 µM): 110%
residual activity (MAPK8 (human); compound 10.0 µM): 80%
residual activity (YES1 (human); compound 1.0 µM): 79%
residual activity (YES1 (human); compound 10.0 µM): 38%
residual activity (IGF1R (human); compound 1.0 µM): 86%
residual activity (IGF1R (human); compound 10.0 µM): 35%
residual activity (IKBKE (human); compound 1.0 µM): 87%
residual activity (IKBKE (human); compound 10.0 µM): 96%
residual activity (MAPK9 (human); compound 1.0 µM): 83%
residual activity (MAPK9 (human); compound 10.0 µM): 71%
residual activity (BTK (human); compound 1.0 µM): 122%
residual activity (BTK (human); compound 10.0 µM): 58%
residual activity (MKNK2 (human); compound 1.0 µM): 113%
residual activity (MKNK2 (human); compound 10.0 µM): 89%
residual activity (EPHB3 (human); compound 1.0 µM): 94%
residual activity (EPHB3 (human); compound 10.0 µM): 74%
residual activity (MAPK14 (human); compound 1.0 µM): 102%
residual activity (MAPK14 (human); compound 10.0 µM): 91%
residual activity (MAPKAPK5 (human); compound 1.0 µM): 90%
residual activity (MAPKAPK5 (human); compound 10.0 µM): 88%
residual activity (BRSK1 (human); compound 1.0 µM): 107%
residual activity (BRSK1 (human); compound 10.0 µM): 58%
residual activity (HIPK2 (human); compound 1.0 µM): 80%
residual activity (HIPK2 (human); compound 10.0 µM): 59%
residual activity (MAPK15 (human); compound 1.0 µM): 59%
residual activity (MAPK15 (human); compound 10.0 µM): 9%
residual activity (PRKACA (human); compound 1.0 µM): 83%
residual activity (PRKACA (human); compound 10.0 µM): 95%
residual activity (MAP3K7 TAB1 (human); compound 1.0 µM): 73%
residual activity (MAP3K7 TAB1 (human); compound 10.0 µM): 39%
residual activity (CAMKK2 (human); compound 1.0 µM): 106%
residual activity (CAMKK2 (human); compound 10.0 µM): 57%
residual activity (IKBKB (human); compound 1.0 µM): 6%
residual activity (IKBKB (human); compound 10.0 µM): 4%
residual activity (DYRK1A (human); compound 1.0 µM): 99%
residual activity (DYRK1A (human); compound 10.0 µM): 80%
residual activity (MAP3K11 (human); compound 1.0 µM): 87%
residual activity (MAP3K11 (human); compound 10.0 µM): 44%
residual activity (MELK (human); compound 1.0 µM): 88%
residual activity (MELK (human); compound 10.0 µM): 29%
residual activity (EPHB2 (human); compound 1.0 µM): 119%
residual activity (EPHB2 (human); compound 10.0 µM): 113%
residual activity (EPHA4 (human); compound 1.0 µM): 107%
residual activity (EPHA4 (human); compound 10.0 µM): 84%
residual activity (CaMK1 (human); compound 1.0 µM): 85%
residual activity (CaMK1 (human); compound 10.0 µM): 27%
residual activity (CSNK1D (human); compound 1.0 µM): 86%
residual activity (CSNK1D (human); compound 10.0 µM): 78%
